For experiment [1], the target named is T1, binding between IKKβ and full-length Regnase-1 (FL_Reg1) (Homo sapiens, UniProt Q5D1E8).
T1 construct: made in house; host or cells: Expi293 cells
T1 sequence (Q5D1E8 1-599): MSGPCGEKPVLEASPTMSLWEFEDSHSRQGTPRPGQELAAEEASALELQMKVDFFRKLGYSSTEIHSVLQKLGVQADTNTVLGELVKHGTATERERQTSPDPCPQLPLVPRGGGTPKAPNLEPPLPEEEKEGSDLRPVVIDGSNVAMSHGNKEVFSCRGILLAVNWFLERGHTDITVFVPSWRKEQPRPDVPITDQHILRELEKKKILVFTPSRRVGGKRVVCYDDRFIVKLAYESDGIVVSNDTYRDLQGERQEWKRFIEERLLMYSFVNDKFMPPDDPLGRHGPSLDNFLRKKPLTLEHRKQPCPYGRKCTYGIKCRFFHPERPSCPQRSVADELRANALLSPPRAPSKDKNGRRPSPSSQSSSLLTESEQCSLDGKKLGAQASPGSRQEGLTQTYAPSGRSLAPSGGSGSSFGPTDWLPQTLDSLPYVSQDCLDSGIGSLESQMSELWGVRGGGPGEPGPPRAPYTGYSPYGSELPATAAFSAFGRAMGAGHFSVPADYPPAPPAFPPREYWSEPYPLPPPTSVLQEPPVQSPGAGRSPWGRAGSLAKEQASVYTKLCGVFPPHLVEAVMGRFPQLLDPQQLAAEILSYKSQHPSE
The experiment is described as follows: Inhibition of kinase-Regnase-1 binding by the compounds (AlphaScreen), IKKβ. An outline of the steps: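 Read-out was AlphaScreen luminescence using anti-FLAG acceptor and glutathione donor beads, with Regnase-1 alone set as 100% and DMSO as 0% inhibition to fit IC50. Compound was premixed with 2.5 nM full-length human Regnase-1 (Expi293-expressed, FLAG/BirA-tagged). 2.5 nM TBK1 or IKKβ was then added for 2 h at room temperature.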
Background: Alpha assays give light when donor and acceptor beads are brought close together.

Experiment [2] has as its target T2, ΔCTD_Reg1 (amino acids 1 to 546 of human Regnase-1) phosphorylation by IKKβ (Homo sapiens, UniProt Q5D1E8).
T2 construct: made in house; host or cells: Expi293 cells
T2 sequence (Q5D1E8 1-546): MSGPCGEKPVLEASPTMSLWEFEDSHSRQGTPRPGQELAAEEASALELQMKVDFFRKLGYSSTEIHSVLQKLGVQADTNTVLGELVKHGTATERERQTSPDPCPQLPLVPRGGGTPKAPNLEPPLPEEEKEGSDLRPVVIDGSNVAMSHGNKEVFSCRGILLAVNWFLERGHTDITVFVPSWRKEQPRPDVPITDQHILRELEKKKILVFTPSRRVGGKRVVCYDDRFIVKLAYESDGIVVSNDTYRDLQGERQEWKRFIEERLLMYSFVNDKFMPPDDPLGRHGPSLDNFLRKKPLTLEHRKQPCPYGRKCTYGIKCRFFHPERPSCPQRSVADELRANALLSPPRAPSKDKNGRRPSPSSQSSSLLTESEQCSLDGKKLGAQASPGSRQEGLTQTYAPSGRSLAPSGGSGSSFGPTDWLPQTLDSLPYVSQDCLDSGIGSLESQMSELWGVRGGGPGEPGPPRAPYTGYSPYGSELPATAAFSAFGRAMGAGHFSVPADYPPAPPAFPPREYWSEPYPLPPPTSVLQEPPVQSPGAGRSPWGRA
The experiment is described as follows: Regnase-1 phosphorylation inhibition by compounds (AlphaScreen), IKKβ, CTD-deficient Regnase-1. In kind it is biochemical. The protocol:
Among the full-length human Regnase-1 sequence, the 1st to 546th amino acid sequence was prepared and made into a construct having a FLAG tag on the N-terminal side and a biotin ligase BirA recognition sequence on the C-terminal side (herein, a Regnase-1 lacking the C-terminal domain of Regnase-1 (amino acids 547 to 599 in the case of SEQ ID NO: 2) is referred to as “ΔCTD_Reg1”. “ΔCTD_Reg1” is different from “Regnase-1ΔCTD”, which is a C-terminal domain deletion variant resulting from a frameshift mutation caused by a 1 bp deletion at codon 517, as prepared in Example 13). In addition, the sequence from amino acids 301 to 599 of the full-length human Regnase-1 sequence was designated as C-terminal Regnase-1, and a construct having a FLAG tag on the N-terminal side and a recognition sequence for biotin ligase BirA on the C-terminal side was prepared (Reg1_301-599). The above-mentioned Regnase-1 was expressed in mammalian Expi293 cells, purified with FLAG M2 agarose, and isolated by gel filtration chromatography. When biotinylation was required, methods of nonpatent documents (BMC biotechnology, 2008,8,41; and Protein Science, 1999,8,921-929) were used.
Using Kinase assay buffer III (manufactured by SignalChem) supplemented with 2 mM DTT, 100 μM sodium vanadate, and 2 mM manganese chloride, kinase (IKKβ (manufactured by SignalChem) or TBK1 (manufactured by SignalChem)) and Regnase-1 were reacted in the presence of 10 μM ATP at room temperature for 2 hours to perform a phosphorylation reaction.
Phosphorylated Regnase-1 was detected by the AlphaScreen system. After each of the above-mentioned phosphorylated Regnase-1 antibodies was added and reacted at room temperature for one hour, anti-FLAG AlphaLISA Acceptor Beads (manufactured by PerkinElmer) and Protein A AlphaScreen Donor Beads (manufactured by PerkinElmer) were added, and EnVision (manufactured by PerkinElmer) was used to measure the excited luminescence. As a result, phosphorylated Regnase-1 produced by the phosphorylation reaction by kinase was specifically detected, and signals were confirmed to be enhanced in a manner dependent on Regnase-1 and kinase concentrations (FIG. 24).
After mixing 2 nM of the above-mentioned Regnase-1 and the compound, phosphorylated Regnase-1 produced by the phosphorylation reaction was detected by the AlphaScreen system. As the results, the inhibition rate was calculated from the signals obtained when adding the compound at each concentration, by defining the signal obtained with Regnase-1 alone to be 100% inhibition rate, and the signal obtained when the same amount of solvent (DMSO) is added in place of the compound as 0% inhibition rate. The 50% inhibition concentration (μM) was calculated from the obtained dose response curve (Table 11).

[3] abbreviates: Table 14, binding between IKKβ and Regnase-1, read-out: Binding inhibition FL_Reg1, 50% inhibition concentration (IKKβ).
Setting [4] is: Table 14, phosphorylation by IKKβ, read-out: Phosphorylation inhibition ΔCTD_Reg1, 50% inhibition concentration (IKKβ).

pIC50: −log10 of the molar value. Read-outs that look alike come from different tables or passages of the source. Residues, ends and D or L forms follow the SMILES beside them. A value given as a limit tells only on which side of the number the result lay.

On to `CC[C@H](C)[C@@H]1NC(=O)[C@H](CCCNC(=N)N)NC(=O)[C@H](Cc2ccc(O)cc2)NC(=O)[C@H](Cc2c[nH]c3ccccc23)NC(=O)[C@H](CO)NC(=O)[C@H](CC(N)=O)NC(=O)[C@H](C)N(C)C(=O)C[C@@H](C(=O)N2CCCC2)NC(=O)[C@H](CC(C)C)NC(=O)CNC(=O)[C@H](Cc2c[nH]c3ccccc23)NC1=O` [PP22] (HELM PEPTIDE1{[meA].N.S.W.Y.R.I.W.G.L.D.[C1CCN([*:1])C1]}$PEPTIDE1,PEPTIDE1,1:R1-11:R3$$$V2.0), for which the pIC50 in experiment [1] (setting [3]) is 4.57.

Regarding `CC[C@H](C)[C@@H]1NC(=O)[C@H](CC(=O)O)NC(=O)[C@H](C)N(C)C(=O)C[C@@H](C(=O)N2CCCC2)NC(=O)[C@H](Cc2ccc(O)cc2)NC(=O)[C@H](CC(=O)O)NC(=O)[C@H](Cc2c[nH]c3ccccc23)NC(=O)[C@H](Cc2ccc(O)cc2)NC(=O)[C@H](CC(=O)O)NC(=O)[C@H](Cc2ccccc2)NC(=O)[C@H](Cc2c[nH]c3ccccc23)NC1=O` [PP18] (HELM PEPTIDE1{[meA].D.I.W.F.D.Y.W.D.Y.D.[C1CCN([*:1])C1]}$PEPTIDE1,PEPTIDE1,1:R1-11:R3$$$V2.0), the results for the pIC50 in experiment [2] (setting [4]) and in experiment [1] (setting [3]) were 6.70 and more than 7.22, respectively.

On to `CC[C@H](C)[C@@H]1NC(=O)[C@H](CC(N)=O)NC(=O)[C@H](Cc2ccc(O)cc2)NC(=O)[C@H](Cc2c[nH]c3ccccc23)NC(=O)[C@H](CO)NC(=O)[C@H](CC(N)=O)NC(=O)[C@H](C)NC(=O)[C@H](Cc2ccc(O)cc2)NC(=O)CNC(=O)[C@H](C)N(C)C(=O)C[C@@H](C(=O)N2CCCC2)NC(=O)[C@H](Cc2c[nH]c3ccccc23)NC1=O` [PP2] (HELM PEPTIDE1{[meA].G.Y.A.N.S.W.Y.N.I.W.D.[C1CCN([*:1])C1]}$PEPTIDE1,PEPTIDE1,1:R1-12:R3$$$V2.0), for which the pIC50 in experiment [2] (Table 11, 2 nM Regnase-1, AlphaScreen, read-out: 50% inhibition concentration, Regnase-1 phosphorylation, ΔCTD_Reg1, IKKβ) is 4.85; in experiment [1] (Table 12, 2.5 nM Regnase-1, 2.5 nM IKKβ, AlphaScreen, read-out: 50% inhibition concentration, binding between Regnase-1 and IKKβ, FL_Reg1), 4.45.

Consider `CC[C@H](C)[C@@H]1NC(=O)[C@H](Cc2c[nH]c3ccccc23)NC(=O)[C@@H](Cc2ccccc2)NC(=O)[C@H](CCCCN)NC(=O)[C@H](C)N(C)C(=O)C[C@@H](C(=O)N2CCCC2)NC(=O)[C@H](CCC(=O)O)NC(=O)[C@H](Cc2ccccc2)NC(=O)[C@H](CO)NC(=O)[C@H](Cc2c[nH]cn2)NC(=O)[C@H](Cc2c[nH]cn2)NC1=O` [PP20] (HELM PEPTIDE1{[meA].K.[dF].W.I.H.H.S.F.E.D.[C1CCN([*:1])C1]}$PEPTIDE1,PEPTIDE1,1:R1-11:R3$$$V2.0), for which the pIC50 in experiment [2] (setting [4]) and in experiment [1] (setting [3]) was less than 4.21 throughout.

Turning to `CC[C@H](C)[C@@H]1NC(=O)[C@H](Cc2c[nH]c3ccccc23)NC(=O)[C@H](CCC(N)=O)NC(=O)[C@H](Cc2ccc(O)cc2)NC(=O)[C@H](C(C)C)NC(=O)[C@H](C)NC(=O)[C@H](Cc2ccc(O)cc2)NC(=O)[C@H](CCCNC(=N)N)NC(=O)[C@H](C)N(C)C(=O)C[C@@H](C(=O)N2CCCC2)NC(=O)[C@@H]2CCCN2C(=O)[C@H](Cc2ccc(O)cc2)NC1=O` [PP12] (HELM PEPTIDE1{[meA].R.Y.A.V.Y.Q.W.I.Y.P.D.[C1CCN([*:1])C1]}$PEPTIDE1,PEPTIDE1,1:R1-12:R3$$$V2.0), the pIC50 in experiment [2] (setting [4]) was 4.57; in experiment [1] (setting [3]), less than 4.21.

Turning to `CC[C@H](C)[C@@H]1NC(=O)[C@H](CO)NC(=O)[C@H](CCCNC(=N)N)NC(=O)[C@H](Cc2ccc(O)cc2)NC(=O)[C@H](Cc2ccc(O)cc2)NC(=O)[C@H](Cc2c[nH]c3ccccc23)NC(=O)[C@H](CO)NC(=O)[C@H](CCC(N)=O)NC(=O)[C@H](Cc2ccc(O)cc2)NC(=O)[C@H](CC(N)=O)NC(=O)[C@H](C)N(C)C(=O)C[C@@H](C(=O)N2CCCC2)NC(=O)[C@H](Cc2c[nH]c3ccccc23)NC1=O` [PP10] (HELM PEPTIDE1{[meA].N.Y.Q.S.W.Y.Y.R.S.I.W.D.[C1CCN([*:1])C1]}$PEPTIDE1,PEPTIDE1,1:R1-13:R3$$$V2.0), in experiment [1] (setting [3]), the pIC50 was 4.94.

Regarding `CC[C@H](C)[C@@H]1NC(=O)[C@H](CC(N)=O)NC(=O)[C@H](Cc2ccc(O)cc2)NC(=O)[C@H](Cc2c[nH]c3ccccc23)NC(=O)[C@H](CO)NC(=O)[C@H](CC(N)=O)NC(=O)[C@H](CO)NC(=O)[C@H](Cc2ccccc2)NC(=O)[C@H](CC(N)=O)NC(=O)[C@H](C)N(C)C(=O)C[C@@H](C(=O)N2CCCC2)NC(=O)[C@H](Cc2c[nH]c3ccccc23)NC1=O` [PP16] (HELM PEPTIDE1{[meA].N.F.S.N.S.W.Y.N.I.W.D.[C1CCN([*:1])C1]}$PEPTIDE1,PEPTIDE1,1:R1-12:R3$$$V2.0), in experiment [1] (setting [3]), the pIC50 is less than 4.21.

In the case of `CC[C@H](C)[C@@H]1NC(=O)[C@H](CCCCN)NC(=O)[C@H](Cc2ccc(O)cc2)NC(=O)[C@H](Cc2c[nH]c3ccccc23)NC(=O)[C@H](CO)NC(=O)[C@H](CC(N)=O)NC(=O)[C@H](C)N(C)C(=O)C[C@@H](C(=O)N2CCCC2)NC(=O)[C@H](CC(C)C)NC(=O)CNC(=O)[C@H](Cc2c[nH]c3ccccc23)NC1=O` [PP21] (HELM PEPTIDE1{[meA].N.S.W.Y.K.I.W.G.L.D.[C1CCN([*:1])C1]}$PEPTIDE1,PEPTIDE1,1:R1-11:R3$$$V2.0), in experiment [1] (setting [3]), the pIC50 is 4.68.

For `CC[C@H](C)[C@@H]1NC(=O)[C@H](CCCCN)NC(=O)[C@H](Cc2ccc(O)cc2)NC(=O)[C@H](Cc2ccccc2)NC(=O)[C@H](C(C)C)NC(=O)[C@H](C)N(C)C(=O)C[C@@H](C(=O)N2CCCC2)NC(=O)[C@H](Cc2c[nH]c3ccccc23)NC(=O)[C@H](CC(N)=O)NC(=O)[C@H](Cc2ccc(O)cc2)NC(=O)[C@H](Cc2c[nH]c3ccccc23)NC1=O` [PP19] (HELM PEPTIDE1{[meA].V.F.Y.K.I.W.Y.N.W.D.[C1CCN([*:1])C1]}$PEPTIDE1,PEPTIDE1,1:R1-11:R3$$$V2.0), the pIC50 in experiment [1] (setting [3]) was 5.24.
